Laboratory results reported in patent publication EP2718307B1, “BETA-HAIRPIN PEPTIDOMIMETICS AS CXC4 ANTAGONISTS” (Polyphor AG, priority 2011, dated 2012).
Read-outs that look alike come from different tables or passages of the source. Bridge positions count the residues as written; N and C are the ends. Square brackets hold non-standard residues; d marks the D form. Peptide text beside a SMILES is read from it. Lys(iPr) = CC(C)NCCCC[C@H](N)C(=O)O; Orn(iPr) = CC(C)NCCC[C@H](N)C(=O)O

Assays:
[1] = Pharmacokinetic study (PK) after intravenous administration; assay type: in vivo, male CD-1 mice; conditions: 1 mg/kg; for AUC0-∞ / CL / Cmax / Half-life / Vdis: mouse, in vivo
Experimental: For the compounds of Ex. 1, Ex.2, Ex. 3, Ex. 4, Ex. 5 and Ex. 6 pharmacokinetic studies after intravenous (i.v.) administration were performed.
30 grams (± 20%) male CD-1 mice obtained from Charles River Laboratories Deutschland GmbH were used. The vehicle, phosphate buffered saline, was added to give a final concentration of 0.5 mg/mL of the compound. The volume was 2 mL/kg and the compound was injected to give a final intravenous dose of 1 mg/kg. Approximately 300-400 µL of blood was removed under light isoflurane anesthesia by cardiac puncture at predetermined time intervals (5, 15, 30 min and 1, 2, 3, 4, hours) and added to heparinized tubes. Plasma was removed from pelleted cells upon centrifugation and frozen at -80 °C prior to HPLC-MS analysis.
Aliquots of 50 µL each of mouse plasma of untreated aminals ("blank" mouse plasma) were spiked with known amounts of the compounds Ex. 1, Ex.2, Ex. 3, Ex. 4, Ex. 5 and Ex. 6 in order to obtain 10 plasma calibration samples for each compound in the range 1 - 4000 ng/mL. Aliquots of 50 µL each of mouse plasma from treated animals were used as plasma study samples.
All plasma samples were spiked with an appropriate internal standard and extracted with acetonitrile containing 2% formic acid. Supernatants were evaporated to dryness under nitrogen and the remaining solids reconstituted in water/acetonitrile 95/5 (v/v) + 0.2% formic acid.
Extracts were then analyzed by reverse-phase chromatography (Acquity BEH C18, 100 x 2.1 mm, 1.7 µm column, Waters for Ex. 1 and Acquity HSS C18 SB, 100 x 2.1 mm, 1.8 µm column, Waters for Ex. 2, Ex. 3, Ex. 4, Ex. 5 and Ex. 6), using the following conditions: Ex. 1, mobile phases: (A) water/acetonitrile 95/5 (v/v) + 0.1% formic acid, (B) acetonitrile/water 95/5 (v/v) + 0.1% formic acid, gradient: 1% (B) 0-0.1 min, 15% (B) 0.1-2.5 min for Ex. 1 and 1% (B) 0-0.1 min, 40% (B) 0.1-2.5 min for Ex. 2, Ex. 3, Ex. 4, Ex. 5 and Ex. 6. The detection and quantification was performed by mass spectrometry, with electrospray interface in positive mode and selective fragmentation of analytes (4000 Q Trap mass spectrometer, AB Sciex).
PK parameters were calculated by WinNonLin™ software version 5.3 (Pharsight- A Certara™ Company, Moutain View, CA 94041 USA) using a one-compartmental model analysis. PK parameters were determined by least-square fitting of the model to the experimental data.

[2] = Plasma stability, human plasma; assay type: in vitro ADME
Experimental: The stability of the peptides in human and mouse plasma was determined by applying the following method: 346.5 µL/deep well of freshly thawed human plasma (Basler Blutspende-dienst) and mouse plasma (Harlan Sera-Lab, UK), respectively, were spiked with 3.5 µL/well of compound dissolved in DMSO/H2O (90/10 [v/v], 1 mM, triplicate) and incubated at 37° C. At t = 0, 15, 30, 60, 120, 240 and 1440 min aliquots of 50 µL were transferred to filtration plate wells containing 150 µL/well of 2% formic acid in acetonitrile. Following shaking for 2 min the occurred suspensions were filtrated by vacuum. 100 µL of each filtrate were transferred to a propylene microtiter plate and dried under N2. The residual solids were reconstituted by adding 100 µL/well of water/acetonitrile, 95/5 (v/v) + 0.2% formic acid and analyzed by LC/MS as follows: Column: Waters, XBridge C18, mobile phases: (A) water + 0.1% formic acid and (B) acetonitrile/water, 95/5 (v/v) + 0.1% formic acid, gradient: 5%-100% (B) in 1.8 minutes, electrospray ionization, MRM detection (triple quadrupole). The peak areas were determined and triplicate values are averaged. The stability is expressed in percent of the initial value at t = 0. (tx/t0 x 100). By using the TREND function of EXCEL (Microsoft Office 2003) T1/2 were determined.

[3] = Drug loading calculations via maintenance dose rate (rate of infusion); conditions: CLiv-mouse values scaled by 0.127 (GFR human/GFR mouse)
Experimental: The drug load for an implant comprising a peptide of the invention was calculated following the basic principles in pharmacokinetics (see also J. Gabrielsson, D. Weiner, "Pharmacokinetics and Pharmaco-dynamics Data Analysis: Concepts and Applications", 4th edition, Swedish Pharmaceutical Press, Stockholm, Sweden, 2006) whereby the maintainance dose rate (rate of infusion, Rin) can be defined as the rate at which a drug is to be administered to reach a steady state of a certain dose in the plasma. The maintainance dose rate can be expressed using the correlation Rin [g/(h*kg)] = CLiv[L/(h*kg)] x Css,eff [g/L], wherein CLiv is the clearance (i.v. - admin.) and Css,eff the effective concentration of the drug in the plasma at steady state considering an efficacy margin A: Css,eff [g/L] = A x (IC50/fu) x MW [(mol/L)*(g/mol)]. Therefore, the total amount of a drug loaded into an implant providing for a constant effective concentration of that drug in the plasma for a certain period of time in a subject of a certain body weight can be calculated by applying the following correlation: Drugload [g/subject] = Rin [g/(h*kg)] x duration[h] x BW [kg/subject]. [formula]
Further pre-conditions are an efficacy margin of A = 3, a study duration of 672 h (28 days) and a body weight of a human suject of 70 kg. The glomerular filtration rate (GFR) which mainly influences the clearance of the peptides is highly dependent on the species. In general, the GFR of humans is averaged to be 107 mL/(h*kg) compared to the GFR of mouse being 840 mL/(h*kg). Therefore, the CLiv-mouse values indicated in Table 5b were allometrically scaled by 107 mL/(h*kg)/840 mL/(h*kg) = 0.127 before employed in the above described correlations.

Row | Compound | Calc. Conc. ([1]; mouse plasma, i.v. route, Time 4 h) [ng/mL] | AUC0-∞ ([1]; iv) [ng·h/mL] | CL ([1]; iv) [mL/min/kg] | Cmax ([1]; iv) [ng/mL] | Half-life ([1]; iv) [h] | Vdis ([1]; iv) [L/kg] | Plasma stability human pl. T1/2 [2] [h] | Plasma stability human pl. cpd left at 1440 min [2] [%] | CLiv, human (allometric scaled) [3] [mL/min/kg] | level at 4 h ([1]; male, CD-1, in vivo, iv, mouse plasma, i.v. route, Time 4 h, read-out: Calc. Conc.) [ng/mL] | Plasma stability human pl. T1/2 ([2]; human plasma, 37° C, last time point 1440 min) [h]
1 | CC(C)NCCCC[C@@H]1NC(=O)[C@H](CCC(N)=O)NC(=O)[C@H](Cc2ccc(O)cc2)NC(=O)[C@@H]2CSSC[C@H](NC(=O)[C@H](Cc3ccc(O)cc3)NC(=O)[C@H](Cc3c[nH]cn3)NC(=O)[C@H](Cc3ccc(O)cc3)NC(=O)[C@@H]3CCCN3C(=O)[C@H]3CCCN3C1=O)C(=O)N[C@@H](CO)C(=O)N[C@@H](C)C(=O)N1CCC[C@@H]1C(=O)N[C@@H](CCCNC(C)C)C(=O)N[C@@H](CCCNC(=N)N)C(=O)N[C@@H](Cc1ccc(O)cc1)C(=O)N2 [Ex. 1, cyclo(-Tyr^1-His^2-Tyr^3-Cys^4-Ser^5-Ala^6-^DPro^7-Orn(iPr)^8-Arg^9-Tyr^10-Cys^11-Tyr^12-Gln^13-Lys(iPr)^14-^DPro^15-Pro^16-), disulfide bond between Cys^4 and Cys^11] (cyclo(YHYCSA[dP][Orn(iPr)]RYCYQ[Lys(iPr)][dP]P); disulfide 4-11) | 7 | 1151 | 14.5 | 1829 | 0.4 | 0.547 | 24 | 77 | 1.83 | – | –
2 | COc1ccc(C[C@@H]2NC(=O)[C@H](Cc3c[nH]cn3)NC(=O)[C@H](Cc3ccc(O)cc3)NC(=O)[C@@H]3CCCN3C(=O)[C@H]3CCCN3C(=O)[C@H](CCCCNC(C)C)NC(=O)[C@H](CCC(N)=O)NC(=O)[C@H](Cc3ccc(O)cc3)NC(=O)[C@@H]3CSSC[C@H](NC2=O)C(=O)N[C@@H](CO)C(=O)N[C@@H](C)C(=O)N[C@H](Cc2ccc(OC)cc2)C(=O)N[C@@H](CCCNC(C)C)C(=O)N[C@@H](CCCNC(=N)N)C(=O)N[C@@H](Cc2ccc(O)cc2)C(=O)N3)cc1 [Ex. 6, cyclo(-Tyr^1-His^2-Tyr(Me)^3-Cys^4-Ser^5-Ala^6-^DTyr(Me)^7-Orn(iPr)^8-Arg^9-Tyr^10-Cys^11-Tyr^12-Gln^13-Lys(iPr)^14-^DPro^15-Pro^16-), disulfide bond between Cys^4 and Cys^11] (cyclo(YHY(Me)CSA[dY](Me)[Orn(iPr)]RYCYQ[Lys(iPr)][dP]P); disulfide 4-11) | – | – | – | – | – | – | – | – | 5.18 | 7 | 24
3 | COc1ccc(C[C@@H]2NC(=O)[C@H](Cc3c[nH]cn3)NC(=O)[C@H](Cc3ccc(O)cc3)NC(=O)[C@@H]3CCCN3C(=O)[C@H]3CCCN3C(=O)[C@H](CCCCNC(C)C)NC(=O)[C@H](CCC(N)=O)NC(=O)[C@H](Cc3ccc(O)cc3)NC(=O)[C@@H]3CSSC[C@H](NC2=O)C(=O)N[C@@H](CO)C(=O)N[C@@H](C)C(=O)N2CCC[C@@H]2C(=O)N[C@@H](CCCNC(C)C)C(=O)N[C@@H](CCCNC(=N)N)C(=O)N[C@@H](Cc2ccc(O)cc2)C(=O)N3)cc1 [Ex. 2, cyclo(-Tyr^1-His^2-Tyr(Me)^3-Cys^4-Ser^5-Ala^6-^DPro^7-Orn(iPr)^8-Arg^9-Tyr^10-Cys^11-Tyr^12-Gln^13-Lys(iPr)^14-^DPro^15-Pro^16-), disulfide bond between Cys^4 and Cys^11] (cyclo(YHY(Me)CSA[dP][Orn(iPr)]RYCYQ[Lys(iPr)][dP]P); disulfide 4-11) | – | 1518 | 11 | 1575 | 0.7 | 0.635 | 24 | 100 | 1.4 | – | –
4 | COc1ccc(C[C@H]2NC(=O)[C@H](C)NC(=O)[C@H](CO)NC(=O)[C@@H]3CSSC[C@H](NC(=O)[C@H](Cc4ccc(O)cc4)NC(=O)[C@H](CCCNC(=N)N)NC(=O)[C@H](CCCNC(C)C)NC2=O)C(=O)N[C@@H](Cc2ccc(O)cc2)C(=O)N[C@@H](CCC(N)=O)C(=O)N[C@@H](CCCCNC(C)C)C(=O)N2CCC[C@@H]2C(=O)N2CCC[C@H]2C(=O)N[C@@H](Cc2ccc(O)cc2)C(=O)N[C@@H](Cc2c[nH]cn2)C(=O)N[C@@H](C)C(=O)N3)cc1 [Ex. 4, cyclo(-Tyr^1-His^2-Ala^3-Cys^4-Ser^5-Ala^6-^DTyr(Me)^7-Orn(iPr)^8-Arg^9-Tyr^10-Cys^11-Tyr^12-Gln^13-Lys(iPr)^14-^DPro^15-Pro^16-), disulfide bond between Cys^4 and Cys^11] (cyclo(YHACSA[dY](Me)[Orn(iPr)]RYCYQ[Lys(iPr)][dP]P); disulfide 4-11) | – | 1345 | 12.4 | 1615 | 0.6 | 0.607 | 24 | 94 | 1.57 | – | –
